Key:
[1] = test system: H211 xenograft tumors; experiment: Anti-tumor activity of topotecan with AP-1, H211 model; format: in vivo, nu/nu mice; conditions: H211, topotecan days 1-5, FIG. 17C
Experimental: (§1) C57BL/6 mice bearing established syngeneic MC38 colon cancer tumors, or nu/nu mice bearing established H69 or H211 xenograft tumors were treated with topotecan on days 1-5 and either AP-1 or vehicle on days 0-4. Median tumor volume and mouse survival was assessed.

[2] = test system: MC38 colon cancer tumors; experiment: Anti-tumor activity of topotecan with AP-1, MC38 model; format: in vivo, C57BL/6 mice; conditions: MC38, topotecan days 1-5, FIG. 17A
Experimental: as §1

[3] = test system: gut tissue; experiment: Topotecan-induced mucositis (gut histopathology); format: in vivo, C57BL/6 mice; conditions: Group 3: […] topotecan days 2-6, 10 mice
Experimental: The effect of a peptidomimetic macrocycle of the disclosure on topotecan-induced mucositis is assessed in a controlled, in vivo study. Four groups of mice (10 mice per group) are involved in the study, and administration of agents occurs over a 6-day treatment period. The first group of mice (Group 1) is treated with a vehicle control on days 2, 3, 4, 5, and 6 of the treatment period. The second group of mice (Group 2) is treated intravenously with 2.4 mg/kg of a peptidomimetic macrocycle on days 1, 2, 3, 4, and 5 of a 6-day treatment period. The third group of mice (Group 3) is treated with 1.5 mg/kg of topotecan on days 2, 3, 4, 5, and 6 of the 6-day treatment period. The fourth group of mice (Group 4) is treated with 2.4 mg/kg of the peptidomimetic macrocycle on days 1, 2, 3, 4, and 5 of the 6-day treatment period and 1.5 mg/kg of topotecan on days 2, 3, 4, 5, and 6 of the 6-day treatment period. Gut samples are then taken from mice on days 7 and 9 post treatment. Histopathology analysis of gut samples is performed to assess hypertrophy/hyperplasia. In some embodiments, all gut samples from mice in Groups 1 and 2 receive a hypertrophy/hyperplasia score of 0. […]
C57BL/6 mice (n=10 per group) were divided into four treatment groups. […] Images and gut tissues and quantification of pathology scores can be seen in FIG. 24A.

[4] = test system: H69 xenograft tumors; experiment: Anti-tumor activity of topotecan with AP-1, H69 model; format: in vivo, nu/nu mice; conditions: H69, topotecan days 1-5, FIG. 17B
Experimental: as §1

[5] = test system: RKO; experiment: Cell viability assay (MTT), RKO; format: cell-based; conditions: read-out: RKO EC50 (72 h), RKO cells
Experimental: Row H of the plate contained the controls. Wells H1-H3 received 20 μL of assay media.
Further dilutions were used for potent peptides.
80 µL of assay media was removed from each well. […] Cell viability was analyzed against the DMSO controls.

[6] = target: MDM2 (Homo sapiens, UniProt Q00987); experiment: Competitive fluorescence polarization assay for MDM2; format: binding
Experimental: 1 mM of FAM-labeled linear peptide (in 100% DMSO) was diluted to 100 μM with DMSO (dilution 1:10). Then, diluted solution was further diluted from 100 μM to 10 μM with water (dilution 1:10), and diluted again with FP buffer from 10 μM to 40 nM (dilution 1:250). […] The diluted FAM-labeled peptides were kept in the dark until use.
Unlabeled peptide dose plates were prepared with FP buffer starting with 1 μM (final) of the peptide. […] 10 mM of the solution (in 100% DMSO) with DMSO to 5 mM (dilution 1:2); dilution from 5 mM to 500 μM with H2O (dilution 1:10); and dilution with FP buffer from 500 μM to 20 μM (dilution 1:25). […] 10 μl of 10 nM (4×) of FAM-labeled peptide was added into each well, and the wells were incubated for 3 h before being read.

[7] = target: T1, MDMX (Homo sapiens, UniProt O15151); experiment: Competitive fluorescence polarization assay for MDMX; format: binding
T1 sequence (O15151 1-125): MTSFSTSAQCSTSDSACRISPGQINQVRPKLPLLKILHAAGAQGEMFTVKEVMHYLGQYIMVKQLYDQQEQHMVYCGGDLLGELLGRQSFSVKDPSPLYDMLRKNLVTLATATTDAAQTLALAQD
Experimental: MDMX (40 kD) was diluted into FP buffer (high-salt buffer 200 mM NaCl, 5 mM CHAPS, pH 7.5) to make a 300 nM (2×) working stock solution. 20 μl of the 300 nM (2×) of protein stock solution was added into each well of 96-well black microplate. 1 mM (in 100% DMSO) of a FAM-labeled linear peptide was diluted with DMSO to a concentration of 100 μM (dilution 1:10). The solution was diluted from 100 μM to 10 μM with water (dilution 1:10), and diluted further with FP buffer from 10 μM to 40 nM (dilution 1:250). […] The diluted FAM-labeled peptide was kept in the dark until use. An unlabeled peptide dose plate was prepared with FP buffer starting with a concentration of 5 μM (final) of a peptide. […] 10 mM (in 100% DMSO) of the solution was diluted with DMSO to prepare a 5 mM (dilution 1:2) solution. The solution was diluted from 5 mM to 500 μM with H2O (dilution 1:10), and diluted further with FP buffer from 500 μM to 20 μM (dilution 1:25). […] 10 μl of the serially diluted unlabeled peptides were added to each well, which was filled with 20 μl of the 300 nM protein solution. 10 μl of the 10 nM (4×) FAM-labeled peptide solution was added into each well, and the wells were incubated for 3 h before reading.

MDM2, sequence (Q00987 1-125): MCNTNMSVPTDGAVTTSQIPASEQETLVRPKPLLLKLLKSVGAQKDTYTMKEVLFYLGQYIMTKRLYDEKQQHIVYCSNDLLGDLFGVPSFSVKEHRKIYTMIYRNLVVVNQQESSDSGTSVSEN

Q: Which survival [1] does the source give for `CC[C@@]1(O)C(=O)OCc2c1cc1n(c2=O)Cc2cc3c(CN(C)C)c(O)ccc3nc2-1` [topotecan] here?
A: Its survival is “increased”.

Q: What about the tumor volumes [1] of the same molecule?
A: The tumor volumes was “decreased”.

Q: And the survival [2]?
A: Its survival is “increased”.

Q: What about the tumor volumes [2] of the same molecule?
A: The tumor volumes was “decreased”.

Q: What about the “mice with hyperplasia/hypertrophy score of 3” value [3] of the same molecule?
A: Its value is “about 70%”.

Q: And the “mice with hypertrophy/hyperplasia score of 2” value [3]?
A: Its value is “about 30%”.

Q: And the survival [4]?
A: The survival was “increased”.

Q: And the tumor volumes [4]?
A: Its tumor volumes is “decreased”.

Q: For `CC(=O)N[C@@H](CCC(=O)O)C(=O)N[C@H](C(=O)N[C@@H](Cc1ccccc1)C(=O)N[C@]1(C)CCCCCCC=CCCC[C@@](C)(C(=O)N[C@@H](C)C(=O)N[C@@H](C)C(=O)N[C@@H](C)C(=O)N[C@@H](C)C(=O)N[C@@H](C)C(=O)N[C@H](C)C(N)=O)NC(=O)[C@H](CC(C)C)NC(=O)[C@H](CCC(N)=O)NC(=O)[C@H](C)NC(=O)[C@H](Cc2c[nH]c3ccccc23)NC(=O)[C@H](Cc2ccc(O)cc2)NC(=O)[C@H](CCC(=O)O)NC1=O)[C@@H](C)O` (single isomer, unassigned) [compound 341], which EC50 [5] is on record?
A: Its EC50 is 1 to 30 µM.

Q: For `CC(=O)N[C@@H](CC(C)C)C(=O)N[C@H](C(=O)N[C@@H](Cc1ccccc1)C(=O)N[C@]1(C)CCCCCCC=CCCC[C@@](C)(C(=O)N[C@@H](CO)C(=O)N[C@@H](C)C(=O)N[C@@H](C)C(=O)N[C@H](C)C(N)=O)NC(=O)[C@H](CC2CCC2)NC(=O)[C@H](CCC(N)=O)NC(=O)[C@H](C)NC(=O)[C@H](Cc2c[nH]c3ccccc23)NC(=O)[C@H](Cc2ccc(O)cc2)NC(=O)[C@H](CCC(=O)O)NC1=O)[C@@H](C)O` (single isomer, unassigned) [compound 353], which EC50 [5] is on record?
A: The EC50 was 1 to 30 µM.

Q: For `CC(=O)N[C@@H](C)C(=O)N[C@@H](CC(C)C)C(=O)N[C@H](C(=O)N[C@@H](Cc1ccccc1)C(=O)N[C@]1(C)CCCCCCC=CCCC[C@@](C)(C(=O)N[C@@H](CO)C(=O)N[C@@H](C)C(=O)N[C@@H](C)C(=O)N[C@H](C)C(N)=O)NC(=O)[C@H](CC2CCC2)NC(=O)[C@H](CCC(N)=O)NC(=O)[C@H](C)NC(=O)[C@H](Cc2c[nH]c3ccccc23)NC(=O)[C@H](Cc2ccc(O)cc2)NC(=O)[C@H](CCC(=O)O)NC1=O)[C@@H](C)O` (single isomer, unassigned) [compound 355], which EC50 [5] is on record?
A: The EC50 was 1 to 30 µM.

Q: How did the EC50 [5] turn out when `CCCC[C@H](NC(=O)[C@H](C)NC(=O)[C@H](C)NC(=O)[C@]1(C)CCC/C=C/CCCCCC[C@@](C)(NC(=O)[C@H](Cc2ccccc2)NC(=O)[C@@H](NC(=O)[C@H](CC(C)C)NC(C)=O)[C@@H](C)O)C(=O)N[C@@H](C)C(=O)N[C@@H](Cc2ccc(O)cc2)C(=O)N[C@@](C)(Cc2c[nH]c3ccccc23)C(=O)N[C@@H](C)C(=O)N[C@@H](CCC(N)=O)C(=O)N[C@@H](CC(C)C)C(=O)N1)C(=O)N[C@@H](C)C(N)=O` [compound 388] was run?
A: Its EC50 is 1 to 30 µM.

Q: For `CC[C@H](C)[C@H](NC(=O)[C@H](C)NC(=O)[C@H](C)NC(=O)[C@]1(C)CCCC=CCCCCCC[C@@](C)(NC(=O)[C@H](Cc2ccccc2)NC(=O)[C@@H](NC(=O)[C@H](CC(C)C)NC(=O)CN(C)C)[C@@H](C)O)C(=O)N[C@@H](CCC(=O)O)C(=O)N[C@@H](Cc2ccc(C(=O)O)cc2)C(=O)N[C@@H](Cc2c[nH]c3ccccc23)C(=O)N[C@@H](C)C(=O)N[C@@H](CCC(N)=O)C(=O)N[C@@H](CC2CCC2)C(=O)N1)C(=O)N[C@H](C)C(N)=O` (single isomer, unassigned) [compound 440], which EC50 [5] is on record?
A: Its EC50 is 1 to 30 µM.

Q: For `CC(=O)N[C@@H](CC(C)C)C(=O)N[C@H](C(=O)N[C@@H](Cc1ccccc1)C(=O)N[C@]1(C)CCCCCCC=CCCC[C@@](C)(C(=O)N[C@@H](CO)C(=O)N[C@@H](C)C(=O)N[C@@H](C)C(N)=O)NC(=O)[C@H](CC2CCCCC2)NC(=O)[C@H](CCC(N)=O)NC(=O)[C@H](C)NC(=O)[C@H](Cc2c[nH]c3ccccc23)NC(=O)[C@H](Cc2ccc(O)cc2)NC(=O)[C@H](CCC(=O)O)NC1=O)[C@@H](C)O` (single isomer, unassigned) [compound 148], which EC50 [5] is on record?
A: Its EC50 is 1 to 30 µM.

Q: `CC(=O)N[C@@H](CC(C)C)C(=O)N[C@H](C(=O)N[C@@H](C)C(=O)N[C@]1(C)CCCCCCC=CCCC[C@@](C)(C(=O)N[C@@H](CO)C(=O)N[C@@H](C)C(=O)N[C@@H](C)C(N)=O)NC(=O)[C@H](CC2CCC2)NC(=O)[C@H](CCC(N)=O)NC(=O)[C@H](C)NC(=O)[C@H](Cc2c[nH]c3ccccc23)NC(=O)[C@H](Cc2ccc(O)cc2)NC(=O)[C@H](CCC(=O)O)NC1=O)[C@@H](C)O` (single isomer, unassigned) [compound 252] was tested. Which IC50 [6] did it give?
A: The IC50 was 0.1 to 1 µM.

Q: What about the Ki [6] of the same molecule?
A: Its Ki is 0.1 to 1 µM.

Q: And the IC50 [7]?
A: The IC50 was greater than 1 µM.

Q: What about the Ki [7] of the same molecule?
A: The Ki was greater than 1 µM.

Q: How did the EC50 [5] turn out when `CC(=O)N[C@@H](C)C(=O)N[C@@H](C)C(=O)N[C@@H](CC(C)C)C(=O)N[C@H](C(=O)N[C@@H](Cc1ccccc1)C(=O)N[C@]1(C)CCCCCCC=CCCC[C@@](C)(C(=O)N[C@@H](CO)C(=O)N[C@@H](C)C(=O)N[C@@H](C)C(=O)N[C@@H](C)C(=O)N[C@H](C)C(N)=O)NC(=O)[C@H](CC2CCC2)NC(=O)[C@H](CCC(N)=O)NC(=O)[C@H](C)NC(=O)[C@H](Cc2c[nH]c3ccccc23)NC(=O)[C@H](Cc2ccc(O)cc2)NC(=O)[C@H](CCC(=O)O)NC1=O)[C@@H](C)O` (single isomer, unassigned) [compound 359] was run?
A: Its EC50 is 1 to 30 µM.

Q: With `CC(=O)N[C@@H](C)C(=O)N[C@@H](C)C(=O)N[C@@H](CC(C)C)C(=O)N[C@H](C(=O)N[C@@H](Cc1ccccc1)C(=O)N[C@]1(C)CCCCCCC=CCCC[C@@](C)(C(=O)N[C@@H](CO)C(=O)N[C@@H](C)C(=O)N[C@@H](C)C(=O)N[C@@H](C)C(=O)N[C@H](C)C(N)=O)NC(=O)[C@H](CC2CCC2)NC(=O)[C@H](CCC(N)=O)NC(=O)[C@H](C)NC(=O)[C@H](Cc2c[nH]c3ccccc23)NC(=O)[C@H](Cc2ccc(O)cc2)NC(=O)[C@H](CCC(=O)O)NC1=O)[C@@H](C)O` (single isomer, unassigned) [compound 358] as the molecule, how does the EC50 [5] read?
A: Its EC50 is 1 to 30 µM.

Q: Which EC50 [5] does the source give for `CC(=O)N[C@@H](CC(C)C)C(=O)N[C@H](C(=O)N[C@@H](Cc1ccccc1)C(=O)N[C@]1(C)CCCCCCC=CCCC[C@@](C)(C(=O)N[C@@H](CO)C(=O)N[C@@H](C)C(=O)N[C@@H](C)C(N)=O)NC(=O)[C@H](C2CCCC2)NC(=O)[C@H](CCC(N)=O)NC(=O)[C@H](C)NC(=O)[C@H](Cc2c[nH]c3ccccc23)NC(=O)[C@H](Cc2ccc(O)cc2)NC(=O)[C@H](CCC(=O)O)NC1=O)[C@@H](C)O` (single isomer, unassigned) [compound 150] here?
A: Its EC50 is 1 to 30 µM.

Q: Which EC50 [5] does the source give for `CC(C)C[C@H](NC(=O)CN(C)C)C(=O)N[C@H](C(=O)N[C@@H](Cc1ccccc1)C(=O)N[C@]1(C)CCCCCCC=CCCC[C@@](C)(C(=O)N[C@@H](CO)C(=O)N[C@@H](C)C(=O)N[C@@H](C)C(N)=O)NC(=O)[C@H](CC2CCC2)NC(=O)[C@H](CCC(N)=O)NC(=O)[C@H](C)NC(=O)[C@H](Cc2c[nH]c3ccccc23)NC(=O)[C@H](Cc2ccc(O)cc2)NC(=O)[C@H](CCC(=O)O)NC1=O)[C@@H](C)O` [compound 435] here?
A: The EC50 was 1 to 30 µM.
